Reference: US20030133918A1, “Methods for ex vivo propagation of somatic stem cells” (priority 2001, published 2003)

Experiments:
[1] = system: Rat liver epithelial cells; test: Clonal derivation of rat liver epithelial cells by limiting dilution in 96-well plates; type: cell-based
Description: Using xanthosine (Xs) as a pharmacological agent to switch tissue stem cells from their default asymmetric cell kinetics program to exponential kinetics, we attempted to derive clonal rat liver epithelial stem cell lines that retained the ability to divide with asymmetric cell kinetics when Xs was removed. Rat liver epithelial cells found in the low-speed supernatant of centrifuged cells from in situ collagenase-perfused livers were clonally-derived by limiting dilution in 96-well plates in the absence or presence of added Xs (200 μM or 400 μM). Colonies with epithelial cell morphology arose with similar efficiency under both conditions (4.1±0.31 percent for both 480 Xs− wells and 960 Xs+ wells). The efficiency of establishing cell strains from these initial colonies was also similar, 50% (3/6) for colonies expanded in Xs-free medium and 65% (11/17) for colonies derived in Xs-containing medium. Each type of cell strain has now been maintained continuously in culture for >80 cell doublings. Early passage cells were cryo-preserved in liquid nitrogen and can be re-established in culture after thawing.

[2] = system: adherent cells from long-term bone marrow cultures; test: Soft agar colony formation by adherent cells from long-term bone marrow cultures; type: cell-based, mice; conditions: adherent cells from cultures with 0.4 to 1.0 mM Xs
Description: Because of the difficulties anticipated in cloning Xs-dependent cells from heterogenous long-term bone marrow cultures, we decided to adopt a soft agar culture strategy. It is well known that hematopoietic progenitor cells will form colonies when grown in semi-solid medium (Dexter et al., 1984). […] Instead, it simply reflects their natural ability to divide without anchorage. In many bone marrow cell studies, conditions are selected to induce bone marrow cell differentiation. Methyl-cellulose or soft agar supplemented with lineage-promoting growth factors are widely used experimental systems (Dexter et al., 1984). For ideal SACK, we wished to minimize stimuli for differentiation. Therefore, we used agar developed in routine horse serum-supplemented long-term culture medium, without any additional growth factor source, as the gel medium for our studies. We followed procedures developed for detecting anchorage-independent growth of transformed tumor cells.
Our plan was to evaluate SACK effects on soft agar colonies derived from fresh bone marrow. Therefore, we wished to relate the morphology of colonies that arose from fresh bone marrow cells to those that arose from LT-CFCs in long-term cultures. […] After 9 weeks of culture, when adherent cells were evaluated after washing and then removal with half-strength trypsin, only type II colonies were detected (frequency=19×10^−5). […]

[3] = system: p53-inducible model cells; conditions: p53-inducible model cells (Sherley et al. 1995a, Liu et al. 1998a); cited from earlier work

O=c1[nH]c(=O)c2ncn([C@@H]3O[C@H](CO)[C@@H](O)[C@H]3O)c2[nH]1 [Xs, xanthosine]
Efficiency with which colonies with epithelial cell morphology arose ([1]; 960 Xs+ wells, added Xs 200 μM or 400 μM, same value for 480 Xs− wells): 4.1±0.31%
Efficiency of establishing cell strains from initial colonies ([1]; colonies derived in Xs-containing medium (11/17), Xs-free 50% (3/6)): 65%
More type I colonies than control cultures (average) [2]: 35%
Suppression of asymmetric cell kinetics [3]: can suppress the asymmetric cell kinetics
